Measured values taken from patent US10543189B2, “2-acetylnaphtho[2,3-b]furan -4,9-dione for use on treating cancer” (Boston Biomedical, Inc., priority 2013, dated 2020).

Assay: Phase 1 extension study of higher strength capsule (DP2A): adverse events
Format: in vivo
From the text: However, with the higher strength capsules, we observed worsening gastrointestinal adverse effects including nausea, vomiting, and diarrhea in patients.
Additional studies were run using an oral formulation of the Compound of the Invention, specifically a higher strength capsule formulation (DP2A). As described herein, the Compound of the Invention blocks cancer stem cell (CSC) self-renewal and induces cell death in CSC as well as non-stem cancer cells by inhibiting Stat3, β-catenin, and Nanog pathways, and has shown potent anti-tumor and anti-metastatic activities pre-clinically. […] The studies described herein were designed as a phase 1 extension study to evaluate a formulation designed for pivotal trials to determine pharmacokinetics (PK) in patients with advanced cancer.
On Day 1, patients received a single 500 mg dose of an oral administration formulation of the Compound of the Invention (DP1). On Day 4 and Day 8, a higher strength capsule designed for pivotal trials (DP2A) was given with fasting then fed conditions. DP2A was then administered daily until disease progression or unacceptable toxicity. Endpoints were safety, PK and preliminary anticancer activity.

[1] = q 4 h dosing (N = 17), AE possibly related to BBI608

In the case of `CC(=O)c1cc2c(o1)C(=O)c1ccccc1C2=O` [Compound 1, 2-acetylnaphtho[2,3-b]furan-4,9-dione], the AE summary (Patient 0053, at 500 mg bid q4h (gastrointestinal issues)) was “No significant gastrointestinal”, the AE summary (Patient 0054, at 500 mg bid q4h (gastrointestinal issues)) was “No significant gastrointestinal” and the AE summary (Patient 0061, fatigue, cramping, diarrhea, and nausea starting at 500 mg bid q4h and persisting at 375 mg/250 mg/250 mg q4h) was “Intolerable grade 2 fatigue,”. For the same molecule, the “Abdominal cramps/pain, Grade 1 or 2, # Subjects” value [1] was 13, the “Abdominal cramps/pain, Grade 1 or 2, %” value [1] was 76.5% and the “Abdominal cramps/pain, Grade 3, # Subjects” value [1] was 1. The “Abdominal cramps/pain, Grade 3, %” value [1] was 5.9%, the “Anorexia, Grade 1 or 2, # Subjects” value [1] was 10 and the “Anorexia, Grade 1 or 2, %” value [1] was 58.8%. The “Anorexia, Grade 3, # Subjects” value [1] was 3, the “Anorexia, Grade 3, %” value [1] was 17.6% and the “Bloated abdomen, Grade 1 or 2, # Subjects” value [1] was 4. For the same molecule, the “Bloated abdomen, Grade 1 or 2, %” value [1] was 23.5%, the “Bloated abdomen, Grade 3, # Subjects” value [1] was 0 and the “Bloated abdomen, Grade 3, %” value [1] was 0.0%. The “Dehydration, Grade 1 or 2, # Subjects” value [1] was 1, the “Dehydration, Grade 1 or 2, %” value [1] was 5.9% and the “Dehydration, Grade 3, # Subjects” value [1] was 0. For the same molecule, the “Dehydration, Grade 3, %” value [1] was 0.0%, the “Depression, Grade 1 or 2, # Subjects” value [1] was 0 and the “Depression, Grade 1 or 2, %” value [1] was 0.0%. For the same molecule, the “Depression, Grade 3, # Subjects” value [1] was 0, the “Depression, Grade 3, %” value [1] was 0.0% and the “Diarrhea, Grade 1 or 2, # Subjects” value [1] was 14. For the same molecule, the “Diarrhea, Grade 1 or 2, %” value [1] was 82.4%, the “Diarrhea, Grade 3, # Subjects” value [1] was 4 and the “Diarrhea, Grade 3, %” value [1] was 23.5%. The “Dysgusia, Grade 1 or 2, # Subjects” value [1] was 1, the “Dysgusia, Grade 1 or 2, %” value [1] was 5.9% and the “Dysgusia, Grade 3, # Subjects” value [1] was 0. The “Dysgusia, Grade 3, %” value [1] was 0.0%, the “Fatigue/weakness, Grade 1 or 2, # Subjects” value [1] was 10 and the “Fatigue/weakness, Grade 1 or 2, %” value [1] was 58.8%. The “Fatigue/weakness, Grade 3, # Subjects” value [1] was 3, the “Fatigue/weakness, Grade 3, %” value [1] was 17.6% and the “Flatulence, Grade 1 or 2, # Subjects” value [1] was 2. The “Flatulence, Grade 1 or 2, %” value [1] was 11.8%, the “Flatulence, Grade 3, # Subjects” value [1] was 0 and the “Flatulence, Grade 3, %” value [1] was 0.0%. For the same molecule, the “Nausea, Grade 1 or 2, # Subjects” value [1] was 8, the “Nausea, Grade 1 or 2, %” value [1] was 47.1% and the “Nausea, Grade 3, # Subjects” value [1] was 1. The “Nausea, Grade 3, %” value [1] was 5.9%, the “Rectal/Anal Burning, Grade 1 or 2, # Subjects” value [1] was 3 and the “Rectal/Anal Burning, Grade 1 or 2, %” value [1] was 17.6%. The “Rectal/Anal Burning, Grade 3, # Subjects” value [1] was 0, the “Rectal/Anal Burning, Grade 3, %” value [1] was 0.0% and the “Reflux (also heartburn), Grade 1 or 2, # Subjects” value [1] was 1. The “Reflux (also heartburn), Grade 1 or 2, %” value [1] was 5.9%, the “Reflux (also heartburn), Grade 3, # Subjects” value [1] was 0 and the “Reflux (also heartburn), Grade 3, %” value [1] was 0.0%. The “Urine Color Change, Grade 1 or 2, # Subjects” value [1] was 2, the “Urine Color Change, Grade 1 or 2, %” value [1] was 11.8% and the “Urine Color Change, Grade 3, # Subjects” value [1] was 0. For the same molecule, the “Urine Color Change, Grade 3, %” value [1] was 0.0%, the “Vomiting, Grade 1 or 2, # Subjects” value [1] was 7 and the “Vomiting, Grade 1 or 2, %” value [1] was 41.2%. For the same molecule, the “Vomiting, Grade 3, # Subjects” value [1] was 0, the “Vomiting, Grade 3, %” value [1] was 0.0% and the “Weight loss, Grade 1 or 2, # Subjects” value [1] was 8. For the same molecule, the “Weight loss, Grade 1 or 2, %” value [1] was 47.1%, the “Weight loss, Grade 3, # Subjects” value [1] was 0 and the “Weight loss, Grade 3, %” value [1] was 0.0%. The “Xerostomia, Grade 1 or 2, # Subjects” value [1] was 4, the “Xerostomia, Grade 1 or 2, %” value [1] was 23.5% and the “Xerostomia, Grade 3, # Subjects” value [1] was 0. For the same molecule, the “Xerostomia, Grade 3, %” value [1] was 0.0%, the “hypophosphatemia, Grade 1 or 2, # Subjects” value [1] was 1 and the “hypophosphatemia, Grade 1 or 2, %” value [1] was 5.9%.
